Data reported in publication PMC6443996, “1‐Hydroxy‐xanthine derivatives inhibit the human Caf1 nuclease and Caf1‐containing nuclease complexes via Mg^2+‐dependent binding” (FEBS Open Bio, 2019).

Tests used:
Assay in all cases: chemiluminescence-based AMP detection (AMP-Glo) deadenylase assay
Type in all cases: biochemical
[1] = target: T1, human Caf1/CNOT7 (Homo sapiens, UniProt Q9UIV1); details: read-out: IC50 (μM) vs Caf1 ^b
T1 construct: isolated recombinant wild-type Caf1 subunit, expressed and purified from Escherichia coli BL21(DE3)
Description: chemiluminescence-based AMP detection (AMP-Glo) deadenylase assay on human Caf1/CNOT7

[2] = target: T2, human pentameric central module (BTG2-Caf1/CNOT7-Ccr4/CNOT6L-CNOT1-CNOT9) of Ccr4-Not (Homo sapiens, UniProt Q9UIV1); details: read-out: IC50 (μM) vs pentameric Caf1-complex ^d
T2 construct: pentamer reconstituted from separately purified nuclease module and CNOT1 (MIF4G and DUF3819 domains, 1093-1595)-CNOT9 (ARM domain, 33-283) dimer; E. coli; with CCR4-NOT transcription complex subunit 6-like; Protein BTG2; CCR4-NOT transcription complex subunit 1; CCR4-NOT transcription complex subunit 9

[3] = target: T3, trimeric human nuclease module (BTG2-Caf1/CNOT7-Ccr4/CNOT6L) (Homo sapiens, UniProt Q9UIV1); details: read-out: IC50 (μM) vs trimeric Caf1-complex ^c
T3 construct: trimeric complex co-expressed from pQE80L-BTG2 and pACYC-Duet1-Strep-CNOT6L-CNOT7 in E. coli; with CCR4-NOT transcription complex subunit 6-like; Protein BTG2
T3 sequence (Q9UIV1 whole entry, other chains not shown): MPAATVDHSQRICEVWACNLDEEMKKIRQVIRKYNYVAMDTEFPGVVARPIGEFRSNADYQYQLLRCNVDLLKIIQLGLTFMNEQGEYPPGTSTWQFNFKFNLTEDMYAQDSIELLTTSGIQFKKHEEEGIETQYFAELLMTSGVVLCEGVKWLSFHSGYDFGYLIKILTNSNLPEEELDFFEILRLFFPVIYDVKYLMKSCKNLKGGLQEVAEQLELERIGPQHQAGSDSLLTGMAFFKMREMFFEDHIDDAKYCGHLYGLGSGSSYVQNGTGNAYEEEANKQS
T3 sequence (P78543 whole entry partner, other chains not shown): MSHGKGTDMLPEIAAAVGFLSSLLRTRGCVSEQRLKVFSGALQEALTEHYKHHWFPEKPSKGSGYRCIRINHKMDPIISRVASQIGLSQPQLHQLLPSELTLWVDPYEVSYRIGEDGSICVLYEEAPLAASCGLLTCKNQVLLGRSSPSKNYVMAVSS

T1 sequence (Q9UIV1 whole entry): as the sequence (Q9UIV1 whole entry, other chains not shown) above
T2 sequence (Q9UIV1 whole entry, other chains not shown, the tested form may be a part): as the sequence (Q9UIV1 whole entry, other chains not shown) above
T2 sequence (P78543 whole entry partner, other chains not shown, the tested form may be a part): as the sequence (P78543 whole entry partner, other chains not shown) above
T2 sequence (A5YKK6 1093-1595 partner, other chains not shown): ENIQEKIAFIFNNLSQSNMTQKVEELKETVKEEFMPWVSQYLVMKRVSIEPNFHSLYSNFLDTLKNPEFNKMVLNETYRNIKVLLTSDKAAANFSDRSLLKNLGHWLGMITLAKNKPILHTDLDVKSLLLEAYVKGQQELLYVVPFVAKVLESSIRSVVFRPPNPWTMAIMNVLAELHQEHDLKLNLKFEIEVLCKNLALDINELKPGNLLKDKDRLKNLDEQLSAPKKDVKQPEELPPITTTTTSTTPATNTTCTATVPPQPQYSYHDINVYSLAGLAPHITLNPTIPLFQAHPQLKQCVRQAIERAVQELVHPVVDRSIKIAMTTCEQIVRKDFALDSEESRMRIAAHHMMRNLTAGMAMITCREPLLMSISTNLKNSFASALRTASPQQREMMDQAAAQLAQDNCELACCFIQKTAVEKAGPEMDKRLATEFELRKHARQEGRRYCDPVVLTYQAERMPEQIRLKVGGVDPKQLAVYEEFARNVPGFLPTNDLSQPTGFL
T2 sequence (Q92600 33-283 partner, other chains not shown): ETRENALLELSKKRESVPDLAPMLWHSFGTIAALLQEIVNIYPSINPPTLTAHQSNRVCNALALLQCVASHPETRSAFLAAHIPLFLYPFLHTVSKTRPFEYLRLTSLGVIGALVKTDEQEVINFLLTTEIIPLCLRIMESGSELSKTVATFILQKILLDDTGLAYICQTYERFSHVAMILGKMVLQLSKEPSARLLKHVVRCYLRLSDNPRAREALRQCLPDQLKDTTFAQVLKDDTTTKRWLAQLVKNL

SMILES: O=c1[nH]c2ncn(Cc3ccccc3)c2c(=O)n1O [compound 1, 1-hydroxy-xanthine compound 1]
- IC50 [1]: 12.7 ± 0.9 µM
- IC50 [2]: 10.8 ± 0.2 µM
- IC50 [3]: 13.6 ± 0.6 µM

SMILES: CN(C)CCCn1c(=O)n(O)c(=O)c2c1ncn2CCc1ccccc1 [compound 5, 1-hydroxy-xanthine compound 5]
- IC50 [1]: 0.79 ± 0.09 µM
- IC50 [2]: 0.98 ± 0.07 µM
- IC50 [3]: 1 ± 0.2 µM
